Measurements reported in PubChem BioAssay (NCI).
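Dose response: 5 concentrations. Exposure: 48 h. Format: 96-well plates. Endpoint: linear interpolation; highest concentration if not reached. GI50 is the concentration that inhibits growth by half. The concentration for full growth arrest is given as TGI.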

Tests used:
Assay in all cases: NCI tumour cell line growth inhibition, 48 h
[1] = system: T-47D breast
[2] = system: SK-MEL-28 melanoma
[3] = system: DU-145 prostate
[4] = system: IGROV1 ovarian
[5] = system: SW-620 colon
[6] = system: PC-3 prostate
[7] = system: HOP-92 NSCLC
[8] = system: LOX IMVI melanoma
[9] = system: K-562 leukemia
[10] = system: COLO 205 colon
[11] = system: RXF 393 renal
[12] = system: SR leukemia
[13] = system: SNB-75 CNS
[14] = system: ACHN renal
[15] = system: CCRF-CEM leukemia
[16] = system: UACC-257 melanoma
[17] = system: SK-MEL-2 melanoma
[18] = system: CAKI-1 renal
[19] = system: SN12C renal
[20] = system: 786-0 renal
[21] = system: NCI-H23 lung
[22] = system: MCF7 breast
[23] = system: SK-MEL-5 melanoma
[24] = system: MDA-MB-231 breast
[25] = system: HCC-2998 colon
[26] = system: HL-60(TB) leukemia
[27] = system: NCI/ADR-RES ovarian
[28] = system: SF-295 CNS
[29] = system: SK-OV-3 ovarian
[30] = system: BT-549 breast
[31] = system: HS 578T breast
[32] = system: NCI-H522 lung
[33] = system: A498 renal
[34] = system: NCI-H460 lung
[35] = system: TK-10 renal
[36] = system: RPMI-8226 leukemia
[37] = system: HCT-116 colon
[38] = system: OVCAR-5 ovarian
[39] = system: UACC-62 melanoma
[40] = system: HT29 colon
[41] = system: SNB-19 CNS
[42] = system: OVCAR-4 ovarian
[43] = system: MOLT-4 leukemia
[44] = system: EKVX NSCLC
[45] = system: U251 CNS
[46] = system: UO-31 renal
[47] = system: MALME-3M melanoma
[48] = system: HOP-62 NSCLC
[49] = system: KM12 colon
[50] = system: A549 NSCLC
[51] = system: M14 melanoma
[52] = system: HCT-15 colon
[53] = system: OVCAR-8 ovarian
[54] = system: SF-268 CNS

SMILES: COc1cc(OC)c(/C=C/S(=O)(=O)Cc2ccc(OC)c(NCC(=O)NO)c2)c(OC)c1
- GI50 [1]: 17800 nM
- TGI [1]: > 100000 nM
- GI50 [2]: > 23700 nM
- TGI [2]: > 100000 nM
- GI50 [3]: 39.5 nM
- TGI [3]: > 100000 nM
- GI50 [4]: 24.1 nM
- TGI [4]: > 100000 nM
- GI50 [5]: 27.9 nM
- TGI [5]: > 100000 nM
- GI50 [6]: 28.5 nM
- TGI [6]: > 100000 nM
- GI50 [7]: 77.7 nM
- TGI [7]: > 100000 nM
- GI50 [8]: < 10 nM
- TGI [8]: > 100000 nM
- GI50 [9]: < 10 nM
- TGI [9]: > 100000 nM
- GI50 [10]: 31.6 nM
- TGI [10]: 119 nM
- GI50 [11]: < 11 nM
- TGI [11]: > 100000 nM
- GI50 [12]: < 10.4 nM
- TGI [12]: > 100000 nM
- GI50 [13]: < 10 nM
- TGI [13]: 72.6 nM
- GI50 [14]: < 15.2 nM
- TGI [14]: > 100000 nM
- GI50 [15]: 41 nM
- TGI [15]: > 100000 nM
- GI50 [16]: > 100000 nM
- TGI [16]: > 100000 nM
- GI50 [17]: > 100000 nM
- TGI [17]: > 100000 nM
- GI50 [18]: < 10 nM
- TGI [18]: > 100000 nM
- GI50 [19]: 55.5 nM
- TGI [19]: > 100000 nM
- GI50 [20]: 40.9 nM
- TGI [20]: > 100000 nM
- GI50 [21]: 41.4 nM
- TGI [21]: > 100000 nM
- GI50 [22]: 14.2 nM
- TGI [22]: > 100000 nM
- GI50 [23]: 18.5 nM
- TGI [23]: 182 nM
- GI50 [24]: 45.7 nM
- TGI [24]: > 100000 nM
- GI50 [25]: 34.6 nM
- TGI [25]: > 100000 nM
- GI50 [26]: 19.1 nM
- TGI [26]: 59.3 nM
- GI50 [27]: < 10 nM
- TGI [27]: > 100000 nM
- GI50 [28]: < 10 nM
- TGI [28]: > 100000 nM
- GI50 [29]: 69.7 nM
- TGI [29]: > 100000 nM
- GI50 [30]: 22.1 nM
- GI50 [31]: < 14.2 nM
- TGI [31]: > 100000 nM
- GI50 [32]: < 10 nM
- GI50 [33]: < 10 nM
- TGI [33]: 101 nM
- GI50 [34]: 25.6 nM
- TGI [34]: > 100000 nM
- GI50 [35]: > 100000 nM
- TGI [35]: > 100000 nM
- GI50 [36]: 45 nM
- TGI [36]: > 100000 nM
- GI50 [37]: 19.8 nM
- GI50 [38]: 53.5 nM
- TGI [38]: > 100000 nM
- GI50 [39]: < 10 nM
- TGI [39]: > 100000 nM
- GI50 [40]: 36.8 nM
- TGI [40]: 4840 nM
- GI50 [41]: 43.4 nM
- TGI [41]: > 100000 nM
- GI50 [42]: 46100 nM
- TGI [42]: > 100000 nM
- GI50 [43]: 41.5 nM
- TGI [43]: > 100000 nM
- GI50 [44]: 58 nM
- TGI [44]: > 100000 nM
- GI50 [45]: 35.5 nM
- TGI [45]: > 100000 nM
- GI50 [46]: 72.3 nM
- TGI [46]: > 100000 nM
- GI50 [47]: > 100000 nM
- TGI [47]: > 100000 nM
- GI50 [48]: 47.2 nM
- TGI [48]: > 100000 nM
- GI50 [49]: 10.5 nM
- TGI [49]: > 100000 nM
- GI50 [50]: 36.4 nM
- TGI [50]: > 100000 nM
- GI50 [51]: 22 nM
- TGI [51]: > 100000 nM
- GI50 [52]: 13.1 nM
- TGI [52]: > 100000 nM
- GI50 [53]: 35.6 nM
- TGI [53]: > 100000 nM
- GI50 [54]: 86.3 nM
- TGI [54]: > 100000 nM
